According to US8609610B2, “Inhibitors of the trypsin-like site of the proteasome and methods of use thereof” (Trustees of Dartmouth College, priority 2011, dated 2013):
Where two headings read alike, the source gives them in different places.

Assays:
[1] = biological target: caspase-like site of 26S proteasomes (Oryctolagus cuniculus, UniProt A0A5F9DQW2); test: Inhibition of purified 26S proteasomes, substrate Ac-nLPnLD-amc; format: biochemical, rabbit; details: >>30 no inhibition at 30 μM, >30 inhibition between 10 and 50% at 30 μM, read-out: IC50 for sites in 26S proteasomes: Casp-L
caspase-like site of 26S proteasomes, sequence (A0A5F9DQW2 1-212): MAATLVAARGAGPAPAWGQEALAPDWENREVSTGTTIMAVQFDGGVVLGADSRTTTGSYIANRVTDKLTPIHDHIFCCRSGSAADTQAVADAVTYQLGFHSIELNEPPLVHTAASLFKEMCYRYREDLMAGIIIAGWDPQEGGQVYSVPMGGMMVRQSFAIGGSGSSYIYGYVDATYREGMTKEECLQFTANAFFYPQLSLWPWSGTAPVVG
Procedure: 26S proteasomes were purified from rabbit muscle using known methods (Screen, et al. (2010) supra). […] NOVEX Bis-Tris gels (12%, Invitrogen) with MOPS running buffer were used for electrophoretic separation of catalytic subunits modified by active-site probes. Inhibition of active sites inside cells was assayed using luminescent PROTEASOMEGLO assay (Promega; Moravec, et al. (2009) Anal. Biochem. 387:294-302) according to known methods (Britton, et al. (2009) supra).

[2] = biological target: T1, trypsin-like sites (β2) of proteasome in MM cells (Homo sapiens, UniProt Q99436); test: PROTEASOMEGLO assay of proteasome inhibition in MM cells; format: cell-based; details: 6 hours, >>30 no inhibition at 30 μM, >30 inhibition 10-50% at 30 μM, read-out: IC50 for sites: Tr-L
T1 construct: endogenous in cells; host or cells: NCI-H929, RPMI-8226 and other MM cell lines
T1 sequence (Q99436 44-277): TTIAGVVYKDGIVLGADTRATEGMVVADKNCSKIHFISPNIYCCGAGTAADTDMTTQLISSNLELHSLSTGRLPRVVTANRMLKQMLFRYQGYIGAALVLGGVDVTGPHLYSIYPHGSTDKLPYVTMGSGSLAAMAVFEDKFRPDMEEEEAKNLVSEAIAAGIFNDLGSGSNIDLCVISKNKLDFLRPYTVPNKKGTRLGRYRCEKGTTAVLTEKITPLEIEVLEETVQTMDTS

[3] = test system: trypsin-like sites (β2) of proteasome in MM cells; test: as above; format: cell-based
[4] = biological target: T2, caspase-like sites (β1) of proteasome in MM cells (Homo sapiens, UniProt P28072+Q99436); test: as above; format: cell-based; details: read-out: IC50 for sites: Casp-L, 6 hours, >>30 no inhibition at 30 μM, >30 inhibition 10-50% at 30 μM
T2 sequence (P28072 35-239): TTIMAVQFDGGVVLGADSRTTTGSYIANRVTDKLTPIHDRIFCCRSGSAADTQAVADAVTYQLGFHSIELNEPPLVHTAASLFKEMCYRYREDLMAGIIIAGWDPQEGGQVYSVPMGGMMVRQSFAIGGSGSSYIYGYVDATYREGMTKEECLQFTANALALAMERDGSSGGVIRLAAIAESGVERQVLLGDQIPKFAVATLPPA
T2 sequence (Q99436 44-277): T1 sequence (Q99436 44-277)

[5] = biological target: β2 (trypsin-like site) of proteasome in HEK-293T cells (Homo sapiens, UniProt P49720+Q99436); test: Competition assay in living HEK-293T cells with activity-based probe; format: cell-based; details: 5 μM
Procedure: (§1) Proteasome inhibition in MM cells was measured with luminogenic substrates using PROTEASOMEGLO assay (Promega). […] An aliquot of culture was pelleted and medium was removed and replaced with PBS. The resulting cell suspension was mixed with luminogenic substrates in the manufacturer-provided lysis/assay buffer. After 3 minutes mixing on an orbital shaker, the plate was incubated in the dark for additional 17 minutes, followed by the measurements of the luminescence, performed in triplicate for each substrate/data point. Data were analyzed as for purified proteasomes. […] Cells (1×10^6 per well of a 6-well plate) were incubated with the inhibitors for 4 hours at 37° C. and this was followed by a 2 hour incubation with 5 μM BODIPY-TMR-epoxomicin. Subsequently, the medium was removed and the cells were washed with PBS and harvested. […] The supernatant was collected and the protein concentration was determined by the Bradford assay, and used to normalize gel loading. The samples were analysed by SDS-PAGE and fluorescent densitometry as described for competition experiment in cell lysates. IC50 values were calculated from three independent experiments using […] PRISM software.
(§2) Human embryonic kidney cells (some 1×10^6) were cultured in 6-well plates in DMEM containing 10% fetal calf serum, 10 units/mL penicillin and 10 μg/mL streptomycin in a 7% CO2 humidified incubator at 37° C. overnight. Part of the medium was taken and to this was added the appropriate inhibitor in DMSO (1 μL of a 1,000× stock solution), after which the medium was added to the cells. The cells were incubated with the inhibitors for 4 hours at 37° C. and this was followed by addition of MV151 (1 μL of a 5 mM stock solution in DMSO) and incubation for 2 hours at 37° C. Next, the medium was removed and the cells were washed with PBS and harvested. […] The supernatant was collected and the protein concentration was determined by the Bradford assay. All samples were normalized to the same protein concentration with lysis buffer.

[6] = biological target: β5 (chymotrypsin-like site) of proteasome in HEK-293T cells (Homo sapiens, UniProt P20618+P28074); test: as above; format: cell-based; details: concentrations up to 50 μM
Procedure: as §1, §2

[7] = test system: Cathepsin B, H, L, S; test: Cathepsin activity with pan-cathepsin substrate Z-FR-amc; format: cell-based; details: NCI-H929 cells, 6 hour treatment
Outline: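 Extracts of cytosol-less cells were used throughout. Cathepsins B, H, L and S were assayed with the fluorogenic Z-FR-amc substrate at pH 6.0. Cathepsin D was measured with the SENSOLYTE 520 fluorometric kit.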

[8] = biological target: T3, β5 proteasome subunit (Homo sapiens, UniProt P20618+P28074); test: Competition assay in HEK-293T cell lysate with MV151; format: biochemical; details: HEK-293T lysate, 50 μM
T3 construct: Whole cell lysates of HEK-293T or EL-4 cells were made by sonication; endogenous in cells; host or cells: HEK-293T
Procedure: (§3) Whole cell lysates of HEK-293T or EL-4 cells were made by sonication in 3 volumes of lysis buffer containing 50 mM Tris pH 7.5, 1 mM DTT, 5 mM MgCl2, 250 mM sucrose, 2 mM ATP, 0.025% digitonin. Protein concentration was determined by the Bradford assay. Cell lysates (13.5 μg total protein for HEK lysates and 9 μg total protein for EL-4 lysates) were exposed to the inhibitors for 1 hour at 37° C. prior to incubation with MV151 (0.5 μM) or BODIPY-TMR-epoxomicin (0.5 μM) for an additional 1 hour at 37° C. Reaction mixtures were boiled with Laemmli's buffer containing (3-mercaptoethanol for 5 minutes before being resolved by 12.5% SDS-PAGE. In-gel detection of residual proteasome activity was performed in the wet gel slabs directly on the TYPHOON Variable Mode Imager (Amersham Biosciences) using the Cy3/Tamra settings (λex 532 nm, λem 560 nm) to detect MV151, BODIPY-TMR-epoxomicin and Cy2/Fam settings (λex 488 nm, λem 520 nm) to detect compounds 39 and 59.
(§4) The inhibition potential of the inhibitors for each of the catalytically active subunits was assessed in competition assays employing extracts of human embryonic kidney cells (HEK-293T) and mouse lymphoma cells (EL-4) in combination with the fluorescent broad spectrum proteasome probe MV151 (Verdoes, et al. (2006) Chem. Biol. 13:1217-1226). Competitive inhibition of a proteasome active site is reflected by the disappearance of the corresponding band on a gel.

[9] = biological target: T4, β2 proteasome subunit (Mus musculus, UniProt P70195+Q9R1P1); test: Competition assay in EL-4 cell lysate with MV151; format: biochemical; details: 0.5 μM
T4 construct: Whole cell lysates of HEK-293T or EL-4 cells were made by sonication; endogenous in cells; host or cells: EL-4

[10] = biological target: T5, β2i proteasome subunit (Mus musculus, UniProt O35955+Q9R1P1); test: Competition assay in EL-4 cell lysate with MV151; format: biochemical; details: EL-4 lysate
T5 construct: Whole cell lysates of HEK-293T or EL-4 cells were made by sonication; endogenous in cells; host or cells: EL-4
Procedure: as §3
as §4, with “Competitive inhibition of a proteasome active site is reflected by the disappearance of the corresponding band on a gel.” left out

[11] = biological target: chymotrypsin-like activity of yeast 20S proteasome (Saccharomyces cerevisiae, UniProt P23724+P30656); test: Yeast 20S core particle activity, substrate Suc-LLVY-amc; details: read-out: IC50 for yeast 20S proteasome: Chym-L
Procedure: Proteasomes were pre-incubated with inhibitors for minutes, and inhibitors were present during activity assays. Fluorescence was measured at λexc=360, λem=460 nm using a Varian Cary Eclipse Fluorescence Spectrophotometer (Agilent Technologies).

[12] = test system: RPMI-8226 cells; test: ALAMAR BLUE cell viability assay; format: cell-based; details: RPMI-8226 cells
Outline: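 Myeloma lines were grown in RPMI-1640 with 10% FBS; viability of myeloma cells was read by ALAMAR BLUE mitochondrial dye conversion. PBMNC viability used CELL TITER-GLO ATP luminescence. Caspase-3/7 activity in NCI-H929 and MM1.R was measured with the APO-ONE homogeneous assay.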

[13] = test system: myeloma cells U266 and AMO-1; test: Cytotoxicity in combination with β5-selective proteasome inhibitors; format: cell-based; details: PR671A with bortezomib or PR523
[14] = test system: bortezomib-adapted cell lines AMO-1a and HL-60a; test: Combination in bortezomib-adapted cell lines; format: cell-based; details: in combination with bortezomib or PR523
[15] = test system: bortezomib-refractory primary myeloma cells from patients; test: Combination in bortezomib-refractory primary myeloma cells; format: cell-based; details: in combination with bortezomib or PR523; primary cells from three patients

Which results are given for `Cc1c(O)cccc1C(=O)N[C@H](C(=O)N[C@@H](CO)C(=O)N[C@H](/C=C/S(C)(=O)=O)Cc1ccc(CN)cc1)C(C)C` [Compound 48, HMB-Val-Ser-Phe (4-CH2NH2)-VS]?
IC50 [1]: 11 µM; IC50 ([2]; NCI-H929 cells): 0.2 µM; IC50 ([2]; RPMI-8226 cells): 3.2 µM; difference in IC50 for trypsin-like activity between NCI-H929 and RPMI-8226 [3]: greater than ten-fold; IC50 ([4]; NCI-H929 cells): > 30 µM; IC50 ([4]; RPMI-8226 cells): > 30 µM; β2 band in living cells [5]: almost disappeared; β5 in living cells [6]: not affected at all; inhibition of cathepsins (Z-FR-amc) [7]: did not cause any inhibition of cathepsins; inhibition of β5 in cell lysate [8]: Only a part of the β5 activity was inhibited; inhibition of β2 in EL-4 lysate [9]: almost completely blocked; concentration at which inhibition of β2i starts [10]: 5 µM; IC50 [11]: 19.3 µM

What does the source list for `CC(C)C[C@H](NC(=O)[C@H](Cc1ccccc1)N=[N+]=[N-])C(=O)N[C@@H](CC(C)C)C(=O)N[C@H](/C=C/S(C)(=O)=O)Cc1ccc(CN)cc1` [Compound 4a, N3Phe-Leu-Leu-Phe (4-CH2NH2) VS]?
difference in IC50 for trypsin-like activity between NCI-H929 and RPMI-8226 [3]: three-fold; time to steady-state proteasome inhibition ([3]; RPMI-8226 cells): 1 h; inhibition of β2 activity in living cells ([5]; 4 hours): inhibiting (almost) all β2 activity; sensitization to bortezomib [12]: sensitized RPMI-8226 cells to bortezomib; sensitization to carfilzomib [12]: slightly more potent sensitizer to carfilzomib than was NC-022; inhibition of cathepsins (Z-FR-amc) [7]: Partial inhibition of cathepsins; inhibition of β5 in cell lysate [8]: completely blocked β5; cytotoxicity of combination [13]: synergistic cytotoxicity; effect on bortezomib resistance [14]: overcomes bortezomib resistance; effect on bortezomib resistance [15]: overcomes bortezomib resistance
